Experimental data from patent publication US20090304803A1, “Compositions and methods relating to target-specific photodynamic therapy” (The General Hospital Corporation, priority 2005, published 2009).

Tests used:
MCF7 cells = settings: cited from earlier work
HER2 = settings: cited from earlier work
ErbB3 receptor = target: T1, ErbB3 receptor (Homo sapiens, UniProt P21860); assay: ErbB3-specific aptamer localization in target and non-target cells, confocal microscopy; format: cell-based; settings: 2 uM, 15 minutes at 4° C. then 20 minutes at 37° C.
T1 construct: endogenous in cells; host or cells: OVCAR3 (target); PA-1 (non-expressing control)
Description: Both ErbB3-expressing cells (OVCAR3) and non-expressing cells (PA-1) were incubated with the ErbB3-specific aptamer and the cells were imaged using a confocal microscope. OVCAR3 (target) and PA-1 (non-target) cells were incubated with 2 uM ErbB3 specific aptamer (tagged on the 5′ end with Fluoroscein) for 15 minutes at 4° C. and then for 20 minutes at 37° C. The cells were then imaged using a confocal laser scanning microscope with 488 nm excitation. The fluorescence was collected using a 515 nm long pass filter.

[1] = water; cited from earlier work

T1 sequence (P21860 20-1342): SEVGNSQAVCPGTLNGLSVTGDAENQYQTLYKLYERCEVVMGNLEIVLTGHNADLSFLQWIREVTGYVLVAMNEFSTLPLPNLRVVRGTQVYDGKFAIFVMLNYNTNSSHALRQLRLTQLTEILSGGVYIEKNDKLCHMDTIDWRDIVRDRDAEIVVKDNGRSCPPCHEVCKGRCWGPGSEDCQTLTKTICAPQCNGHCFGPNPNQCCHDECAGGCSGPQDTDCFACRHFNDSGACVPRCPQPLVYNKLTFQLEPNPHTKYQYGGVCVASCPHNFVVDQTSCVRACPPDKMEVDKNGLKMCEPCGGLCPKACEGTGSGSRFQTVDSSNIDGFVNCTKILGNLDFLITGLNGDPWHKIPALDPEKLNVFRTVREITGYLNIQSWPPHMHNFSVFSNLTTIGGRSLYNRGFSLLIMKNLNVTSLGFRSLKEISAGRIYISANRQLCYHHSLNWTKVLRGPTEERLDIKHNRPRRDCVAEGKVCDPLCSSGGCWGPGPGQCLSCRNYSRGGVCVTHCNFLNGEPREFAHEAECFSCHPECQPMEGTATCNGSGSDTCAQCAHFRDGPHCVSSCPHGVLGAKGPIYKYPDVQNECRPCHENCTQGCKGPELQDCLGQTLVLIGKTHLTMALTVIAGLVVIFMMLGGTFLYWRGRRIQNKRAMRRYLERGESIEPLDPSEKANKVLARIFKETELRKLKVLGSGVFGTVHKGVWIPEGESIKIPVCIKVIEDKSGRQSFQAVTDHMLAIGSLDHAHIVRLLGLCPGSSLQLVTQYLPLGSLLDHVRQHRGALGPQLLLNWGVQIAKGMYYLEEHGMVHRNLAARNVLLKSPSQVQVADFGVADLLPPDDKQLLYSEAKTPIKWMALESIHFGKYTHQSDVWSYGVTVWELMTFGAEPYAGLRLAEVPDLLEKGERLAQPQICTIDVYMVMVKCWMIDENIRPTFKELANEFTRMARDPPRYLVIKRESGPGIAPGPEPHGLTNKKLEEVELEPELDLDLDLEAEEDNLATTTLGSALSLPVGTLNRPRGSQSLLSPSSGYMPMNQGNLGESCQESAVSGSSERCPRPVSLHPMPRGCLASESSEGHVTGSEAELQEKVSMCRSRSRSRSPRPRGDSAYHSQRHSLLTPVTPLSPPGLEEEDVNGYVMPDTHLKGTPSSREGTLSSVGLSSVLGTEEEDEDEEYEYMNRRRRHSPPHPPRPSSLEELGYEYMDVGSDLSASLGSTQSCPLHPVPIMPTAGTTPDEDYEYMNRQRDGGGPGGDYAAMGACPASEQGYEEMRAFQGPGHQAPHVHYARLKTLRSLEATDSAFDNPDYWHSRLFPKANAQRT

Substance: ErbB3-specific aptamer: aptamer that recognizes the ErbB3 receptor, sequence from Chen et al., PNAS 2003; labeled at 5′ end with Fluoroscein (DNA CAGCGAAAGUUGCGUAUGGGUCACAUCGCAGGCACAUGUCAUCUGGGCG; 5' fluorescein label, chemistry of the aptamer otherwise not given here)
- hrg-induced growth response of MCF7 cells (MCF7 cells): inhibited
- hrg-dependent tyrosine phosphorylation of HER2 (HER2): inhibited
- aptamer localization, OVCAR3 (target) versus PA-1 (non-target) (ErbB3 receptor): localized specifically to the OVCAR3 cell line

Substance: chlorin e6 monoethylendiamine monamide [CMA]
- solubility [1]: soluble in water
